Results on four molecules are retold here after patent US10668043B2, “Potentiated antimicrobial agents” (priority 2014, dated 2020).

≈ marks a conversion by molar mass, not a printed value. Like-named read-outs stand apart in the source and are kept apart here.

A word on the MIC: it is the least concentration at which growth counts as inhibited.

One data set has as its system Staphylococcus. The experiment in a line: etest on agar containing the booster. The data set is classed as cell-based. The settings on record: MRSA 10178. An excerpt:
(§1) The corresponding tests are made based on the usual MIC test: the etest® (Biomerieux) strip is deposited onto the surface of a seeded agar medium in which the booster has been incorporated. This test enables solvent effect risks, that is a possible interaction with the solvent used in vitro, to be minimised.
(§2) The control corresponds to the test made without cineol. A control is made in each solvent tested: distilled water, Tween/water and DMSO. • ED control=antibiotic alone in distilled water • DMSO control=antibiotic alone in DMSO • TE control=antibiotic alone in Tween® 80

For data set [1] the following is noted: orally; two mammal species (cats and rats); cited from earlier work.
The conditions of data set [2]: mouse, intravenous; cited from earlier work.
The test system of another data set is E. coli. Nature of the data set: etest on agar containing the booster. The data set is classed as cell-based. The conditions noted are these: Escherichia coli, Coli 8150.
Text: as §1, §2

Another data set has as its system Pasteurella. Nature of the data set: etest on agar containing the booster. The data set is classed as cell-based.
Text: The corresponding tests are made based on the usual MIC test: the etest® (Biomerieux) strip is deposited onto the surface of a seeded agar medium in which the booster has been incorporated.
as §2
Other e-tests are also made on Pasteurella.

[3] abbreviates: DMSO control (antibiotic alone).
Setting [4] is: ED control (antibiotic alone in distilled water).
[5] abbreviates: Tween water control (antibiotic alone).

As to `CC1(C)S[C@@H]2[C@H](NC(=O)Cc3ccccc3)C(=O)N2[C@H]1C(=O)O` [Penicillin G], the MIC is 0.75^+ mg/L against Staphylococcus (Cineol 1 mg DMSO); 0.5 µg/mL (≈ 1.5 µM) in the data set with Staphylococcus (Cineol 1 mg Tween/water); 0.5^+ mg/L with Staphylococcus (Cineol 4 mg DMSO); 0.38^+ mg/L in the data set with Staphylococcus (Cineol 4 mg Tween/water); 0.19^+ mg/L in the data set with Staphylococcus (Cineol 16 mg DMSO); 0.125^+ mg/L in the data set on Staphylococcus (Cineol 16 mg Tween/water). In addition, the MIC is 1.5 µg/mL (≈ 4.49 µM) against Staphylococcus (setting [3]), 1 µg/mL (≈ 2.99 µM) against Staphylococcus (setting [4]) and 0.5 µg/mL (≈ 1.5 µM) in the data set on Staphylococcus (setting [5]).

As to `Cc1ccc(C(C)C)cc1O` [carvacrol], in data set [1], the lowest letal dose was 100 mg/kg. Moreover, in data set [2], the “LD 50” value is given as 80 mg/kg.

Regarding `CN(C)c1cc(NC(=O)CNC(C)(C)C)c(O)c2c1C[C@H]1C[C@H]3[C@H](N(C)C)C(O)=C(C(N)=O)C(=O)[C@@]3(O)C(O)=C1C2=O` [Tigecycline], the MIC in the data set on Staphylococcus (Cineol 1 mg DMSO) worked out at 0.19 µg/mL (≈ 0.324 µM); with Staphylococcus (Cineol 1 mg Tween/water) it was 0.125 µg/mL (≈ 0.213 µM); against Staphylococcus (Cineol 4 mg DMSO) it was 0.19 µg/mL (≈ 0.324 µM); with Staphylococcus (Cineol 4 mg Tween/water) it was 0.094 µg/mL (≈ 0.161 µM); with Staphylococcus (Cineol 16 mg DMSO), 0.125 µg/mL (≈ 0.213 µM); in the data set with Staphylococcus (Cineol 16 mg Tween/water), 0.094 µg/mL (≈ 0.161 µM). For the same molecule, the MIC in the data set on Staphylococcus (setting [3]) amounted to 0.25 µg/mL (≈ 0.427 µM); against Staphylococcus (setting [4]), 0.125 µg/mL (≈ 0.213 µM); against Staphylococcus (setting [5]), 0.125 µg/mL (≈ 0.213 µM); against E. coli (Cineol 1 mg DMSO), 0.19 µg/mL (≈ 0.324 µM); in the data set with E. coli (Cineol 1 mg Tween/water), 0.125 µg/mL (≈ 0.213 µM); against E. coli (Cineol 4 mg DMSO) it was 0.125 µg/mL (≈ 0.213 µM). Besides, the MIC was determined as 0.094 µg/mL (≈ 0.161 µM) against E. coli (Cineol 4 mg Tween/water); 0.064 µg/mL (≈ 0.109 µM) against E. coli (Cineol 16 mg DMSO); 0.1 µg/mL (≈ 0.171 µM) against E. coli (Cineol 16 mg Tween/water); 0.19 µg/mL (≈ 0.324 µM) against E. coli (setting [3]); 0.125 µg/mL (≈ 0.213 µM) against E. coli (setting [4]); 0.125 µg/mL (≈ 0.213 µM) in the data set on E. coli (setting [5]).

Regarding `C[C@@H](O)[C@H]1C(=O)N2C(C(=O)O)=C(S[C@@H]3CN[C@H](C(=O)N(C)C)C3)[C@H](C)[C@H]12` [Meropenem], the MIC (e-test) came out at 0.006 µg/mL (≈ 0.0156 µM) in the data set with Pasteurella (strain 14012, 5 mg cineol DMSO); 0.008 µg/mL (≈ 0.0209 µM) in the data set with Pasteurella (strain 14012, 5 mg cineol TE); 0.006 µg/mL (≈ 0.0156 µM) in the data set on Pasteurella (strain 14012, 5 mg cineol water); 0.006 µg/mL (≈ 0.0156 µM) in the data set on Pasteurella (strain 14012, 10 mg cineol DMSO); 0.008 µg/mL (≈ 0.0209 µM) in the data set on Pasteurella (strain 14012, 10 mg cineol TE); 0.008 µg/mL (≈ 0.0209 µM) with Pasteurella (strain 14012, 10 mg cineol water). In addition, the MIC (e-test) against Pasteurella (strain 14012, DMSO control) came out at 0.008 µg/mL (≈ 0.0209 µM); in the data set on Pasteurella (strain 14012, ED control), 0.008 µg/mL (≈ 0.0209 µM); in the data set on Pasteurella (strain 14012, TE control), 0.023 µg/mL (≈ 0.06 µM); in the data set with Pasteurella (strain 14014, 5 mg cineol DMSO) it was 0.012 µg/mL (≈ 0.0313 µM); against Pasteurella (strain 14014, 5 mg cineol TE), 0.016 µg/mL (≈ 0.0417 µM); against Pasteurella (strain 14014, 5 mg cineol water), 0.016 µg/mL (≈ 0.0417 µM). Besides, the MIC (e-test) in the data set on Pasteurella (strain 14014, 10 mg cineol DMSO) amounted to 0.016 µg/mL (≈ 0.0417 µM); with Pasteurella (strain 14014, 10 mg cineol TE), 0.012 µg/mL (≈ 0.0313 µM); against Pasteurella (strain 14014, 10 mg cineol water) it was 0.016 µg/mL (≈ 0.0417 µM); against Pasteurella (strain 14014, DMSO control) it was 0.016 µg/mL (≈ 0.0417 µM); with Pasteurella (strain 14014, ED Control), 0.012 µg/mL (≈ 0.0313 µM); in the data set on Pasteurella (strain 14014, TE control), 0.012 µg/mL (≈ 0.0313 µM). Moreover, the MIC in the data set with E. coli (Cineol 1 mg DMSO, read-out: MIC) came to 0.064 µg/mL (≈ 0.167 µM); with E. coli (Cineol 1 mg Tween/water, read-out: MIC) it was 0.064 µg/mL (≈ 0.167 µM); in the data set with E. coli (Cineol 4 mg DMSO, read-out: MIC) it was 0.064 µg/mL (≈ 0.167 µM); in the data set with E. coli (Cineol 4 mg Tween/water, read-out: MIC), 0.047 µg/mL (≈ 0.123 µM); with E. coli (Cineol 16 mg DMSO, read-out: MIC) it was 0.064 µg/mL (≈ 0.167 µM); in the data set with E. coli (Cineol 16 mg Tween/water, read-out: MIC), 0.1 µg/mL (≈ 0.261 µM). Moreover, the MIC in the data set on E. coli (DMSO control (antibiotic alone), read-out: MIC) turned out to be 0.094 µg/mL (≈ 0.245 µM); with E. coli (ED control (antibiotic alone in distilled water), read-out: MIC) it was 0.047 µg/mL (≈ 0.123 µM); in the data set with E. coli (Tween water control (antibiotic alone), read-out: MIC) it was 0.094 µg/mL (≈ 0.245 µM).
